Here are results for four molecules from PMC2967473, “PP2A1 Binding, Cell Transducing and Apoptotic Properties of Vpr77–92: A New Functional Domain of HIV-1 Vpr Proteins” (PLoS ONE, 2010).

In data set [1] the test system is HeLa cells. As to the kind of experiment: Cell penetration and localization of biotinylated peptides. The format is cell-based, human. To be noted: 150 µM biotinylated peptide, 2 h, 37°C, streptavidin-peroxydase/DAB staining, microscopy; for Cell penetration: fixation. How it is done:
A total of 4×10^4 exponentially proliferating HeLa cells growing in a sub confluent monolayer were seeded per well on a Lab-Tek and incubated at 37°C, 5% CO2. Biotinylated peptides were added 48 h later to the cells at different concentrations for different periods of time. Cells were washed twice in PBS, and fixed with absolute ethanol for 10 min at –20°C before addition of 100 µM of streptavidin HRP conjugate After 30 min incubation at 37°C, cells were rinsed twice in PBS and incubated with DAB for around 10 min. Cells were washed in distilled water and mounted for microscopic examination.

For data set [2], the system named is PP2A1 holoenzyme. As to the kind of experiment: Affinity chromatography of PP2A1 on Vpr-T-agarose column, phosphorylase a phosphatase assay. The data set is classed as binding, pig. To be noted: 16 µg PP2A1 on 1 mL column, buffer C pH 7.4, linear gradient to 1 M NaCl, phosphorylase a as substrate. As for the experimental part: Figure 1 Analysis of HIV-1 Vpr and PP2A1 interaction. (A) 16 µg of PP2A1 holoenzyme purified from pig brain was loaded on a 1 mL HIV-1 strain 89.6-Vpr-T-agarose column equilibrated in buffer C (25 mM TrisHCl pH 7.4, 50 mM NaCl, 0.1 mM EDTA). The column was washed with 10 mL of buffer C and then developed with a 18 mL linear gradient of buffer C to buffer C plus 1 M NaCl. Phosphatase activity of collected fractions was assayed with phosphorylase a as substrat (1U = 1 pm of phosphate liberated by 10 µL of fraction/min). A major peak of phosphatase activity was detected, eluting at 0.3 M NaCl. (B) ECL revelation of PP2A binding assay on cellulose-bound Vpr peptides. 43 overlapping dodecapeptides with a two-amino acid shift scanning the entire 89.6-Vpr sequence (accession number: AAA81039) were synthesized on a cellulose membrane. The membrane was incubated with PP2A1 holoenzyme (upper panel) or PP2A-A subunit (lower panel) and subsequently with anti-PP2A antibodies followed by peroxydase-labelled anti-guinea pig antibodies. (C) Sequence of HIV-1 Vpr protein: sequence of the two PP2A-A binding sites are indicated in bold. These sequences correspond to overlapping sequences of positive dodecapeptides 29 to 32 (PP2A-A subunit incubation) or 39 to 41 (PP2A1 incubation). (D) Co-precipitation of DPT-Vpr peptides with PP2A1 in HeLa cell extracts. […]

Residues, ends and D or L forms follow the SMILES beside them. *: point of attachment. Biotin = O=C1N[C@H]2[C@H](CS[C@H]2CCCCC(=O)*)N1

For `CC[C@H](C)[C@H](NC(=O)CNC(=O)[C@@H](NC(=O)[C@H](CCCNC(=N)N)NC(=O)[C@H](CO)NC(=O)[C@H](Cc1c[nH]cn1)NC(=O)[C@H](CCCNC(=N)N)NC(=O)CCCC[C@@H]1SC[C@@H]2NC(=O)N[C@@H]21)[C@@H](C)CC)C(=O)N[C@H](C(=O)N[C@@H](CCC(N)=O)C(=O)N[C@@H](CCC(N)=O)C(=O)N[C@@H](CCCNC(=N)N)C(=O)N[C@@H](CCCNC(=N)N)C(=O)N[C@H](C(=O)N[C@@H](CCCNC(=N)N)C(=O)N[C@@H](CC(N)=O)C(=O)NCC(=O)O)[C@@H](C)O)[C@@H](C)CC` [DPT-Vpr1], in data set [1], the Cell penetration result is given as “penetrate into HeLa cells” and the Intra-cellular localization result is given as “homogeneous cytoplasm labeling”.

As for `N=C(N)NCCC[C@H](NC(=O)[C@H](CCCNC(=N)N)NC(=O)[C@H](CCC(N)=O)NC(=O)[C@H](CCCNC(=N)N)NC(=O)[C@H](CCCNC(=N)N)NC(=O)[C@H](CCCCN)NC(=O)[C@H](CCCCN)NC(=O)[C@H](CCCNC(=N)N)NC(=O)CNC(=O)[C@H](Cc1ccc(O)cc1)NC(=O)CCCC[C@@H]1SC[C@@H]2NC(=O)N[C@@H]21)C(=O)O` [Tat, reference compound] (Biotin-YGRKKRRQRR-OH), in data set [1], the Cell penetration entry is given as “penetrate into HeLa cells” and the Intra-cellular localization result is “homogeneous cytoplasm labeling”.

For the molecule `CC[C@H](C)[C@H](NC(=O)CNC(=O)[C@@H](NC(=O)[C@H](C)NC(=O)[C@H](CO)NC(=O)[C@H](Cc1c[nH]cn1)NC(=O)[C@H](C)NC(=O)CCCC[C@@H]1SC[C@@H]2NC(=O)N[C@@H]21)[C@@H](C)CC)C(=O)N[C@H](C(=O)N[C@@H](CCC(N)=O)C(=O)N[C@@H](CCC(N)=O)C(=O)N[C@@H](CCCNC(=N)N)C(=O)N[C@@H](CCCNC(=N)N)C(=O)N[C@@H](C)C(=O)N[C@@H](CCCNC(=N)N)C(=O)N[C@@H](CC(N)=O)C(=O)NCC(=O)O)[C@@H](C)CC` [DPT-Vpr3] (Biotin-AHSAIGIIQQRRARNG-OH), in data set [1], the Cell penetration result is “penetrate into HeLa cells” and the Intra-cellular localization entry is given as “homogeneous cytoplasm labeling”.

B1: Vpr-T: full length HIV-1 89.6-Vpr in a 6-his C-term tagged form, expressed in bacteria (protein)
chain: MEQAPEDQGPQREPYNDWTLELLEELKNEAVRHFPRIWLHSLGQHIYETYGDTWTGVEALIRILQQLLFIHFRIGCRHSRIGIIQQRRTRNGASKS
modifications: left off: His6, C-terminal, kept
notes: full length HIV-1 89.6-Vpr in a 6-his C-term tagged form, expressed in bacteria
For the molecule B1, the “NaCl concentration at which bound PP2A1 phosphatase activity elutes from the Vpr-T-agarose column” value in data set [2] is 0.3 M NaCl.
